Measurements taken from PubChem BioAssay (NCI).
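Five concentrations, 48 hours, 96-well plates. GI50 = concentration required for 50% inhibition of growth. At the TGI there is no net growth.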

Columns and labels:
Experiment in all cases: NCI anticancer screen, dose series, 48 h
SW-620 colon = test system: SW-620 colon
HCC-2998 colon = test system: HCC-2998 colon
HOP-62 NSCLC = test system: HOP-62 NSCLC
K-562 leukemia = test system: K-562 leukemia
SK-OV-3 ovarian = test system: SK-OV-3 ovarian
SNB-75 CNS = test system: SNB-75 CNS
HCT-15 colon = test system: HCT-15 colon
SF-268 CNS = test system: SF-268 CNS
PC-3 prostate = test system: PC-3 prostate
NCI-H23 lung = test system: NCI-H23 lung

Compound | TGI (SW-620 colon) [µM] | TGI (HCC-2998 colon) [µM] | TGI (HOP-62 NSCLC) [µM] | TGI (K-562 leukemia) [µM] | TGI (SK-OV-3 ovarian) [µM] | TGI (SNB-75 CNS) [µM] | TGI (HCT-15 colon) [µM] | TGI (SF-268 CNS) [µM] | TGI (PC-3 prostate) [µM] | TGI (NCI-H23 lung) [µM] | GI50 (PC-3 prostate) [µM] | GI50 (NCI-H23 lung) [nM] | GI50 (SW-620 colon) [nM] | GI50 (HCC-2998 colon) [nM] | GI50 (HOP-62 NSCLC) [nM] | GI50 (K-562 leukemia) [nM] | GI50 (SK-OV-3 ovarian) [nM] | GI50 (SNB-75 CNS) [nM] | GI50 (HCT-15 colon) [nM] | GI50 (SF-268 CNS) [nM]
CC(=O)O[C@H]1C#C/C=C\C#CC[C@@H]2C(=O)N(C(=O)OC(C)(C)C)[C@@H]12 | > 100 | > 67.5 | 39.6 | > 100 | > 100 | > 72.9 | 51.4 | > 75.2 | > 100 | > 69 | – | – | – | – | – | – | – | – | – | –
Cc1cc(S(=O)(=O)Nc2nnc3c(C(F)(F)F)cc(Cl)cn23)c(S)cc1Cl | > 100 | > 100 | > 100 | > 100 | > 100 | > 100 | > 100 | > 100 | > 100 | – | – | – | – | – | – | – | – | – | – | –
Cc1ccc(S(=O)(=O)n2cncc2CO)cc1 | > 100 | > 100 | > 100 | > 100 | > 100 | > 100 | > 100 | > 100 | > 100 | > 100 | – | – | – | – | – | – | – | – | – | –
C/C(=N\NC(N)=O)C(CN1CCCCC1)C(c1ccccc1)c1c(O)c2ccccc2oc1=O (configuration not stated) | > 100 | > 100 | > 100 | > 100 | > 100 | > 100 | > 100 | > 100 | > 100 | > 100 | 95.3 | > 100000 | – | – | – | – | – | – | – | –
CC(=O)/C=C/C=C(\C)CC/C=C(\C)CC(C)C | 35.3 | 34.7 | > 100 | 56.8 | > 100 | 98.8 | 30.6 | > 100 | > 100 | 54.9 | – | – | – | – | – | – | – | – | – | –
O=C(N/N=C\c1cccc2ccccc12)Nc1ccc([N+](=O)[O-])cc1 | > 100 | > 70.3 | 59.2 | > 100 | 97.2 | > 100 | > 100 | > 88.9 | > 70.5 | > 60.2 | – | – | – | – | – | – | – | – | – | –
Cc1ccc2nc3c(C)c(Cl)c(=O)cc-3sc2c1 | > 100 | > 100 | 69.4 | 19 | > 100 | 56.3 | > 100 | > 100 | > 100 | 34.3 | – | – | – | – | – | – | – | – | – | –
CN(C(=O)C1(C(=O)C=[N+]=[N-])CC1)c1ccccc1 | > 100 | > 100 | > 100 | > 100 | – | > 100 | > 100 | > 100 | > 100 | > 100 | – | – | – | – | – | – | – | – | – | –
O=C(O)/C=C(/CC(=O)O)C(=O)O | 39.8 | 90.4 | 40.1 | 42.6 | 47.6 | 33.1 | 54 | 40 | 40.2 | 57.2 | – | – | – | – | – | – | – | – | – | –
COc1ccc(C(O)c2ccc3c(c2)OCO3)cc1 (configuration not stated) | > 100 | > 100 | > 100 | > 100 | > 100 | > 100 | > 100 | > 100 | > 100 | > 100 | – | – | – | – | – | – | – | – | – | –
O=C1/C(=C/c2ccccc2)CCc2ccc(Cl)nc21 | 18.6 | 48.4 | 42 | 6.78 | 73 | 47.5 | 11.4 | > 64.8 | 29.9 | 45.5 | – | – | – | – | – | – | – | – | – | –
Cc1nnc2cc(C(=O)O)c3ccccc3n2c1=O | > 10 | > 10 | > 10 | > 10 | > 10 | > 10 | > 10 | > 10 | > 10 | > 10 | – | – | – | – | – | – | – | – | – | –
CC1=C(C(=O)OCCc2ccc([N+](=O)[O-])cc2)C(c2ccccc2[N+](=O)[O-])C(C(=O)OC(C)C)=C(C)N1 (configuration not stated) | > 100 | > 100 | > 100 | > 100 | > 100 | > 100 | > 100 | > 100 | 18 | > 100 | – | – | – | – | – | – | – | – | – | –
Cc1cc2ccccc2c[n+]1CC(O)C[n+]1cc2ccccc2cc1C | > 100 | > 100 | > 100 | > 100 | – | > 100 | > 100 | > 100 | > 100 | > 100 | – | – | – | – | – | – | – | – | – | –
O=C(CC(O)(C(F)(F)F)C(F)(F)F)C(CCCl)C(O)(C(F)(F)F)C(F)(F)F (configuration not stated) | > 100 | > 100 | > 100 | > 100 | > 100 | 96.4 | > 100 | > 100 | > 100 | 83.9 | – | – | – | – | – | – | – | – | – | –
Cc1csc2c1C(=O)c1ccsc1C2=O | 5.31 | 14.6 | – | > 25.6 | 40.5 | 3.51 | 3.51 | 12.1 | 8.1 | 2.5 | – | – | – | – | – | – | – | – | – | –

Compound | TGI (SW-620 colon) [µM] | TGI (HCC-2998 colon) [µM] | TGI (HOP-62 NSCLC) [µM] | TGI (K-562 leukemia) [µM] | TGI (SK-OV-3 ovarian) [µM] | TGI (SNB-75 CNS) [µM] | TGI (HCT-15 colon) [µM] | TGI (SF-268 CNS) [µM] | TGI (PC-3 prostate) [µM] | TGI (NCI-H23 lung) [µM] | GI50 (PC-3 prostate) [µM] | GI50 (NCI-H23 lung) [nM] | GI50 (SW-620 colon) [nM] | GI50 (HCC-2998 colon) [nM] | GI50 (HOP-62 NSCLC) [nM] | GI50 (K-562 leukemia) [nM] | GI50 (SK-OV-3 ovarian) [nM] | GI50 (SNB-75 CNS) [nM] | GI50 (HCT-15 colon) [nM] | GI50 (SF-268 CNS) [nM]
N#CC1=C(N)C(C#N)(C#N)C(c2ccc(F)cc2)C=C1C1CC1 (configuration not stated) | 56 | 25.4 | 25.8 | 41.9 | 30 | 18.1 | 22.3 | 16 | 21.8 | 13.8 | – | – | – | – | – | – | – | – | – | –
O=C(O)C(CCc1ccccn1)c1ccccc1 (configuration not stated) | > 100 | > 100 | > 100 | > 100 | > 100 | > 100 | > 100 | > 100 | > 100 | > 100 | – | – | – | – | – | – | – | – | – | –
CC(C)(CO)CNc1nc(N)nc(Cl)c1N | > 100 | > 100 | > 100 | > 100 | > 100 | > 100 | > 100 | > 100 | > 100 | > 100 | – | – | – | – | – | – | – | – | – | –
N#Cc1c(NC(=O)c2ccccc2)sc2c1CCC(=O)C2 | 3.69 | 10.3 | > 100 | > 100 | 14.7 | 6.2 | 2.39 | 38.4 | 13.3 | 6.99 | 0.385 | 768 | 524 | 1820 | 2550 | 467 | 2330 | 1640 | 395 | 2590
CCOC(=O)c1cc2c(OC(C)=O)ccc(OC(C)=O)c2s1 | – | 22.2 | 23.9 | – | 22.7 | 5.62 | 3.34 | 3.85 | 5.07 | 5.51 | – | – | – | – | – | – | – | – | – | –
O=C(/C=C/c1ccc(-c2ccccc2[N+](=O)[O-])o1)NCc1ccc(C(=O)NCCc2ccccc2)cc1 | > 100 | > 100 | > 100 | > 100 | > 100 | > 100 | > 100 | > 100 | > 100 | > 100 | – | – | – | – | – | – | – | – | – | –
O=C(C1=C(C(=O)c2ccccc2)SC2(S1)C(C(=O)c1ccccc1)=C(C(=O)c1ccccc1)Sc1c2ssc1=O)c1ccccc1 | > 100 | > 100 | > 100 | > 100 | > 100 | > 100 | > 100 | > 100 | > 100 | > 100 | – | – | – | – | – | – | – | – | – | –
Cc1cc2ccccc2n1CC(=O)NCC(C)C | > 100 | > 100 | > 100 | > 100 | > 100 | > 100 | > 100 | > 100 | > 100 | > 100 | – | – | – | – | – | – | – | – | – | –
OC1CCCC1C(O)(C(F)(F)F)C(F)(F)F (configuration not stated) | > 100 | > 100 | > 100 | > 100 | > 100 | > 100 | > 100 | > 100 | > 100 | > 100 | – | – | – | – | – | – | – | – | – | –
N#CCCC1C(C#N)C2CC1C1C3C=CC(C3)C21 (configuration not stated) | > 100 | > 100 | – | > 100 | > 100 | > 100 | > 100 | > 100 | > 100 | > 100 | – | – | – | – | – | – | – | – | – | –
Cn1c(=O)c2c(-c3ccccc3)onc2n(C)c1=O | > 100 | 90.2 | > 100 | > 100 | > 100 | > 100 | > 100 | > 100 | > 100 | 41.6 | – | – | – | – | – | – | – | – | – | –
CC(=O)N(CN1C(=O)CCC1C(=O)O)c1ccccc1 (configuration not stated) | > 100 | > 100 | > 100 | > 100 | > 100 | > 100 | > 100 | > 100 | > 100 | > 100 | – | – | – | – | – | – | – | – | – | –
CCc1nnc(-n2c(C)nc3cc(Cl)ccc3c2=O)s1 | > 100 | > 100 | > 100 | > 100 | > 100 | 92.8 | > 100 | > 100 | > 100 | > 100 | – | – | – | – | – | – | – | – | – | –
CC(CCC(=O)O)[C@H]1CCC2[C@H]3C(CC[C@@]21C)[C@@]1(C)CCC(O)C[C@H]1C[C@@H]3O (some centres not stated) | > 100 | > 100 | > 100 | > 100 | – | > 100 | > 100 | > 100 | > 100 | > 100 | – | – | – | – | – | – | – | – | – | –
CCN(CC)CCO/N=C1\CC[C@H]2[C@@H]3CC=C4C[C@@H](O)CC[C@]4(C)[C@H]3CC[C@]12C | 30.4 | 31.7 | 35.2 | 30.7 | – | 91.1 | 28.5 | > 100 | 50.2 | 33.4 | – | – | – | – | – | – | – | – | – | –
COC(=O)[C@H](C)N1C(=O)N[C@@H](C(C)C)C1=O | > 100 | > 100 | > 100 | > 100 | > 100 | > 100 | > 100 | – | > 100 | > 100 | – | – | – | – | – | – | – | – | – | –
